Source: ChEMBL document CHEMBL1140885, “Novel naphthalimide-amino acid conjugates with flexible leucine moiety as side chain: design, synthesis and potential antitumor activity” (Bioorg Med Chem, 2009)
pIC50: −log10 of the molar value.

Experiments:
MCF7 = assay: Cytotoxicity against human MCF7 cells after 48 hrs by MTT assay; assay type: functional, cell-based; details: MCF7, 48 h
A-375 = assay: Cytotoxicity against human A375 cells after 48 hrs by MTT assay; assay type: functional, cell-based; details: A-375, 48 h
P388 = assay: Cytotoxicity against mouse P388 cells after 48 hrs by MTT assay; assay type: functional, cell-based; details: P388, 48 h
HL-60 = assay: Cytotoxicity against human HL60 cells after 48 hrs by MTT assay; assay type: functional, cell-based; details: HL-60, 48 h
HeLa = assay: Cytotoxicity against human HeLa cells after 48 hrs by MTT assay; assay type: functional, cell-based
A549 = assay: Cytotoxicity against human A549 cells after 72 hrs by SRB assay; assay type: functional, cell-based; details: A549, 72 h
HCT-8 = assay: Cytotoxicity against human HCT8 cells after 48 hrs by MTT assay; assay type: functional, cell-based; details: HCT-8, 48 h
Albumin = Albumin (Bos taurus, UniProt P02769); assay: Binding affinity to bovine serum albumin at 10 uM after 15 mins by spectrophotometric titration; assay type: ADME; details: cattle, isolated protein, 0.25 h
DNA [1] = assay: Binding affinity to calf thymus DNA by fluorescence titration; assay type: nucleic-acid assay; details: Bos taurus
DNA [2] = assay: Binding affinity to calf thymys DNA assessed as increase in viscosity; assay type: nucleic-acid assay; details: Bos taurus

Sequence of Albumin (P02769 whole entry): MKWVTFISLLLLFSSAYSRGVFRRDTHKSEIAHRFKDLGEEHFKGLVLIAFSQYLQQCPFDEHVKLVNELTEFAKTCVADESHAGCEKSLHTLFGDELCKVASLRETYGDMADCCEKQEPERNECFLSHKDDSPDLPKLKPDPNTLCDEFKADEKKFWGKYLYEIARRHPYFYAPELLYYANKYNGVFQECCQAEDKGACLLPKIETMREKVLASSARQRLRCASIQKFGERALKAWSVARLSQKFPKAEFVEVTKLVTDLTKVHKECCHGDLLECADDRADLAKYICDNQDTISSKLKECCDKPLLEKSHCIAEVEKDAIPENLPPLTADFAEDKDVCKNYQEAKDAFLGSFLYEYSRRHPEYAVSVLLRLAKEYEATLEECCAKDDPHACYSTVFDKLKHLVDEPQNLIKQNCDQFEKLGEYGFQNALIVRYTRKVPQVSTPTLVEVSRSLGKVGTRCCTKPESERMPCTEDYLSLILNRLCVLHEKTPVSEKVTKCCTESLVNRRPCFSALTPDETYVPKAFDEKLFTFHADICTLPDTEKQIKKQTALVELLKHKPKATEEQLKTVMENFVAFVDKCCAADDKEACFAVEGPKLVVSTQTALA

`COc1cc(-c2ccc(NC(=O)[C@H](CC(C)C)N3C(=O)c4cccc5c(NCCN(C)C)ccc(c45)C3=O)c(OC)c2)ccc1N` showed a pIC50 (MCF7) of 4.82, a pIC50 (A-375) of 5.19 and a pIC50 (P388) of 5.12. The pIC50 (HL-60) was 4.64, the pIC50 (HeLa) was 5.17 and the pIC50 (A549) was 4.60. For the same compound, the pIC50 (HCT-8) was less than 4.30.

`CC(C)C[C@@H](C(=O)Nc1ccc(S(=O)(=O)c2ccc(N)cc2)cc1)N1C(=O)c2cccc3c(NCCSc4ccccc4)ccc(c23)C1=O` gave a pIC50 (MCF7) of 4.61, a pIC50 (A-375) of less than 4.30 and a pIC50 (P388) of less than 4.30. It also gave a pIC50 (HL-60) of less than 4.30, a pIC50 (HeLa) of less than 4.30 and a pIC50 (A549) of less than 4.30. The pIC50 (HCT-8) was less than 4.30 and the Activity (Albumin) was “Active”.

For `CC(C)C[C@@H](C(=O)Nc1ccc(S(=O)(=O)c2ccc(N)cc2)cc1)N1C(=O)c2cccc3c(NCCN(C)C)ccc(c23)C1=O`, the pIC50 (MCF7) was 5.06, the pIC50 (A-375) was less than 4.30 and the pIC50 (P388) was less than 4.30. For the same compound, the pIC50 (HL-60) was less than 4.30, the pIC50 (HeLa) was less than 4.30 and the pIC50 (A549) was 4.76. The pIC50 (HCT-8) was less than 4.30.

Work on `CC(C)C[C@@H](C(=O)Nc1ccc(S(N)(=O)=O)cc1)N1C(=O)c2cccc3c(NCCSc4ccccc4)ccc(c23)C1=O` yielded a pIC50 (MCF7) of 4.90, a pIC50 (A-375) of less than 4.30 and a pIC50 (P388) of less than 4.30. The pIC50 (HL-60) was less than 4.30, the pIC50 (HeLa) was less than 4.30 and the pIC50 (A549) was less than 4.30. For the same compound, the pIC50 (HCT-8) was less than 4.30 and the Activity (Albumin) was “Active”.

`COc1cc(-c2ccc(NC(=O)[C@H](CC(C)C)N3C(=O)c4cccc5c(NCCSc6ccccc6)ccc(c45)C3=O)c(OC)c2)ccc1N` gave a pIC50 (MCF7) of 5.02, a pIC50 (A-375) of less than 4.30 and a pIC50 (P388) of less than 4.30. For the same compound, the pIC50 (HL-60) was less than 4.30, the pIC50 (HeLa) was less than 4.30 and the pIC50 (A549) was less than 4.30. The pIC50 (HCT-8) was less than 4.30 and the Activity (Albumin) was “Active”.

For `CC(C)C[C@@H](C(=O)Nc1ccc(S(N)(=O)=O)cc1)N1C(=O)c2cccc3c(NCCN(C)C)ccc(c23)C1=O`, the pIC50 (MCF7) was 5.06, the pIC50 (A-375) was 5.18 and the Ka (DNA [1]) was 4.92 ×10⁴ /M. For the same compound, the Activity (DNA [2]) was “Dose-dependent effect”, the pIC50 (P388) was 5.14 and the pIC50 (HL-60) was 4.75. It also gave a pIC50 (HeLa) of 5.09, a pIC50 (A549) of less than 4.30 and a pIC50 (HCT-8) of less than 4.30.
